Experimental data reported in patent publication US11103582B2, “Method to achieve extended expression of DNA infused into liver” (IMMUSOFT CORPORATION, priority 2012, dated 2021).

Test system: Kupffer cells
Settings: Dog #17: dexamethasone 1 mg/kg days −1, 0, 2, 4 then twice weekly + cyclophosphamide 10 mg/kg day 0 then weekly; no GdCl3; pKT2/CLP-cSEAP//PGK-SB100x into LHV
Method: Infusions of pKT2/clp-cSEAP//PGK-SB100x (FIG. 2) into the left hepatic vein were carried out as described in the text, collecting plasma samples before, during and after the infusion procedure and assaying for heat stable alkaline phosphatase activity.

Row | Structure (SMILES) | Time after which cSEAP expression was extinguished
1 | C[C@@H]1C[C@H]2[C@@H]3CCC4=CC(=O)C=C[C@]4(C)[C@@]3(F)[C@@H](O)C[C@]2(C)[C@@]1(O)C(=O)CO [Dexamethasone] | about 4 weeks
2 | O=P1(N(CCCl)CCCl)NCCCO1 (centres unmarked) [Cyclophosphamide] | about 4 weeks
